Legend:
androgen receptor (AR) [1] = target: T1, androgen receptor (AR) (Homo sapiens, UniProt P10275); test: Anti-adiol activity: modulation of AED-induced AR transactivation (MMTV-CAT assay); type: cell-based; conditions: PC-3 cells, pSG5 AR + MMTV-CAT, 50 nM AED, compound at 10, 100 or 1000 nM; FIG. 2B
T1 construct: expressed in transfected cells; host or cells: PC-3 (AR-negative human prostate cancer cell line)
T1 sequence (P10275 1-920): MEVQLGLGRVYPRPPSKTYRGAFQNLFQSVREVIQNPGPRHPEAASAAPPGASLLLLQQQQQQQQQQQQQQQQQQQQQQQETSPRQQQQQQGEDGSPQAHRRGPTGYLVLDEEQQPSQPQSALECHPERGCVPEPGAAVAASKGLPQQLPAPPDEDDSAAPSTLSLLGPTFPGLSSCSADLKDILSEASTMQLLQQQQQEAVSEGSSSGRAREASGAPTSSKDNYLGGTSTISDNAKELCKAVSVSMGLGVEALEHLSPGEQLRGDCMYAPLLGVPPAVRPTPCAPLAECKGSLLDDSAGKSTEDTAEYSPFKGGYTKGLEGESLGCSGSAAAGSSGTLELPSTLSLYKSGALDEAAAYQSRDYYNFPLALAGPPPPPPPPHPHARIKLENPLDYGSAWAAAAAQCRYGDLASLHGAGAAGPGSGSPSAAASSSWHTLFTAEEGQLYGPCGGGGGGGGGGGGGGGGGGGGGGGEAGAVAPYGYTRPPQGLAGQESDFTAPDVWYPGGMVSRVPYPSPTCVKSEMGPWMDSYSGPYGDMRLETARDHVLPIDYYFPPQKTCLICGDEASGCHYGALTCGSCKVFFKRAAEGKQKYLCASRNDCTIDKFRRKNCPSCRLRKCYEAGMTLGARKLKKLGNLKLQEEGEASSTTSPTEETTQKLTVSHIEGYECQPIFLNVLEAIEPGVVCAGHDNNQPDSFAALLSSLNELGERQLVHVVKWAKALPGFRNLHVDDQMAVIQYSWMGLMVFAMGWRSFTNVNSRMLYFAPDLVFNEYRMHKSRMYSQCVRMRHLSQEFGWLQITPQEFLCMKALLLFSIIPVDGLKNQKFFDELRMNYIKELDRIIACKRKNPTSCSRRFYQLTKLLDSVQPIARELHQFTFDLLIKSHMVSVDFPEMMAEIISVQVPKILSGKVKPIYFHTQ
Excerpt: (§1) AR activity assay. […] Ethynyl derivatized steroids were purchased from Steraloids.

androgen receptor (AR) [2] = target: T1, androgen receptor (AR); test: Induction of AR-mediated transcriptional activity (MMTV-CAT reporter assay); type: cell-based; conditions: PC-3 cells co-transfected with AR plasmid and MMTV-CAT; compounds at 1000, 10 and 0.1 nM; FIG. 1
Method: as §1
Induction of AR-mediated transcriptional activity. Steroid compounds were screened for their ability to induce AR transcriptional activity in the AR-negative PC-3 cell line. The results of the CAT assay were obtained by transient co-transfection of AR plasmid and a reporter plasmid (MMTVCAT) containing the CAT gene linked to the androgen response element (ARE). After transfection, the cells were treated with various DHEA derivatives at 1000, 10, and 0.1 nM.

androgen receptor (AR) [3] = target: T1, androgen receptor (AR); test: Suppression of AED-induced AR transcriptional activity in the presence of HF (MMTV-CAT assay); type: cell-based; conditions: PC-3 cells, 1 μM HF, 50 nM AED; FIG. 4
Excerpt: as §1

[4] = target: T2, progesterone receptor (PR) (Homo sapiens, UniProt P06401); test: Steroid hormone specificity: MMTV-CAT reporter with PR in PC-3 cells; conditions: PC-3 cells transfected with MMTV-CAT and PR; FIG. 5
T2 sequence (P06401 1-933): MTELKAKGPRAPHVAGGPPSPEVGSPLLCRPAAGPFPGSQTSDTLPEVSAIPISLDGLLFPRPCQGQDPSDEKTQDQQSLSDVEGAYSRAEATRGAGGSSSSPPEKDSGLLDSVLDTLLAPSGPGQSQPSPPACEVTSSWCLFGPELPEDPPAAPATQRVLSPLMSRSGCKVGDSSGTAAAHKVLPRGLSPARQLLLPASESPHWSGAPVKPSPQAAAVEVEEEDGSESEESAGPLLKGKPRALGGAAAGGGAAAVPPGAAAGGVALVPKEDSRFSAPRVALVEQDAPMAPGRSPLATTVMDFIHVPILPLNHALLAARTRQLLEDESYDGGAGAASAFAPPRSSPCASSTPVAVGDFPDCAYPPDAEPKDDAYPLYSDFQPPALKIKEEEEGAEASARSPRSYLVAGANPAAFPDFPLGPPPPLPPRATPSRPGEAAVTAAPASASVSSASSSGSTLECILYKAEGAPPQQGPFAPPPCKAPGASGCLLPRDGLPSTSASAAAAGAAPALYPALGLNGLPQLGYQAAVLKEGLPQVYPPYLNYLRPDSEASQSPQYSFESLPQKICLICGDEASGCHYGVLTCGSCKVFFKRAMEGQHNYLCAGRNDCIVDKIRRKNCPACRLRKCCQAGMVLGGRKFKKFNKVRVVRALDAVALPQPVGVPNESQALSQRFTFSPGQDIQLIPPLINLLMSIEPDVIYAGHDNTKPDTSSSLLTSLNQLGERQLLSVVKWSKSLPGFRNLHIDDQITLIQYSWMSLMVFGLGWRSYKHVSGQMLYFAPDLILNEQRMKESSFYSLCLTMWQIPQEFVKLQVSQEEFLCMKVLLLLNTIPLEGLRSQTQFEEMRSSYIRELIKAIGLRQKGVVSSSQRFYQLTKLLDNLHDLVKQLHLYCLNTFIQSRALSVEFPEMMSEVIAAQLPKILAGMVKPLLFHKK
Method: Ethynyl derivatized steroids were purchased from Steraloids. The plasmid pSG5-wild-type AR (pSG5) and mouse mammalian tumor virus (MMTV)-chloramphenicol acetyltransferase (CAT) were constructed as described (6). […] The human prostate cancer cell line, PC-3, and human breast cancer cell line, MCF-7, were maintained in Dulbecco's modified eagles medium (DMEM) containing 10% fetal calf serum. DNA transfection and CAT assays were performed essentially as described (4, 6, 7). Briefly, 4×10^5 cells were plated on 60 mm dishes 24 h before transfection, and the medium was changed to DMEM (without phenol red) with 10% charcoal-stripped fetal calf serum 1 hour before transfection. The cells were transfected using the calcium phosphate precipitation method. The total amount of DNA was adjusted to 8.5 μg with pSG5 in each transfection assay. After transfecting the cells for 24 hours, the transfection medium was removed, fresh DMEM was added and steroids were added. The cells were then incubated in DMEM with steroids for 24 hours. After incubation, the cells were harvested and whole cell extracts were used for CAT assay. Transfection efficiency was normalized by cotransfection with a βgalactosidase vector, which acted as an internal control. The CAT enzyme activity was quantitated by phosphor imager according to the manufacturer's instructions (Molecular Dynamics).

C#C[C@]1(O)CCC2C3CC=C4C[C@@H](O)CC[C@]4(C)C3CC[C@@]21C (stereo partly drawn) [Compound 6, 17α-ethynyl-androst-5-ene-3β,17β-diol]
effect on AED-mediated AR transcriptional activity (androgen receptor (AR) [1]): antagonized AED-mediated AR transcriptional activity
androgenic activity (AR-mediated CAT gene transactivation) (androgen receptor (AR) [2]): little androgenic activity

CC(C)(O)C(=O)Nc1ccc([N+](=O)[O-])c(C(F)(F)F)c1 [HF, hydroxyflutamide]
suppression of AED-mediated AR transcription activity by HF (androgen receptor (AR) [3]): about 40%

3β,17β-diacetoxy-androst-5-ene-7α,17β-diol [Compound 13]
effect on AED-mediated AR transcriptional activity (androgen receptor (AR) [1]): either activation of AED-mediated AR transcriptional activity or they have no effect
androgenic activity (AR-mediated CAT gene transactivation) (androgen receptor (AR) [2]): little androgenic activity

CO[C@H]1CC[C@@]2(C)C(=CC(=O)[C@H]3[C@@H]4CC[C@H](O)[C@@]4(C)CC[C@@H]32)C1 [Compound 15, 3β-methoxy-17β-hydroxy-androst-5-ene-7-one]
effect on AED-mediated AR transcriptional activity (androgen receptor (AR) [1]): either activation of AED-mediated AR transcriptional activity or they have no effect
androgenic activity (AR-mediated CAT gene transactivation) (androgen receptor (AR) [2]): little androgenic activity

C[C@]12CC[C@H]3[C@@H](C(=O)C=C4C[C@@H](O)CC[C@@]43C)[C@@H]1CC[C@@H]2O [Compound 22, 7-oxo-androstene-3β,17β-diol]
effect on AED-mediated AR transcriptional activity (androgen receptor (AR) [1]): either activation of AED-mediated AR transcriptional activity or they have no effect
androgenic activity (AR-mediated CAT gene transactivation) (androgen receptor (AR) [2]): little androgenic activity

17-methyl-marrianolic acid [Compound 18]
effect on AED-mediated AR transcriptional activity (androgen receptor (AR) [1]): either activation of AED-mediated AR transcriptional activity or they have no effect
androgenic activity (AR-mediated CAT gene transactivation) (androgen receptor (AR) [2]): little androgenic activity

C[C@]12CC[C@H]3[C@@H](CC=C4C[C@@H](O)CC[C@@]43C)[C@@H]1CC(=O)[C@@H]2O [Compound 8, 3β,17β-dihydroxy-androst-5-en-16-one]
effect on AED-mediated AR transcriptional activity (androgen receptor (AR) [1]): antagonized AED-mediated AR transcriptional activity
androgenic activity (AR-mediated CAT gene transactivation) (androgen receptor (AR) [2]): little androgenic activity

COC(=O)O[C@H]1CC[C@@]2(C)C(=CC(=O)[C@@H]3[C@@H]2CC[C@]2(C)C(=O)CC[C@@H]32)C1 [Compound 10, 3β,-methylcarbonate-androst-5-en-7,17-dione]
effect on AED-mediated AR transcriptional activity (androgen receptor (AR) [1]): antagonized AED-mediated AR transcriptional activity
androgenic activity (AR-mediated CAT gene transactivation) (androgen receptor (AR) [2]): little androgenic activity

C[C@]12C[C@H](O)[C@H]3[C@@H](CC=C4C[C@@H](O)CC[C@@]43C)[C@@H]1CC[C@@H]2O [Compound 5, androst-5-ene-3β,11β,17β-triol]
effect on AED-mediated AR transcriptional activity (androgen receptor (AR) [1]): either activation of AED-mediated AR transcriptional activity or they have no effect
androgenic activity (AR-mediated CAT gene transactivation) (androgen receptor (AR) [2]): little androgenic activity

3β-methoxy-androst-5-ene-?,17β-diol [Compound 16]
androgenic activity (AR-mediated CAT gene transactivation) (androgen receptor (AR) [2]): little androgenic activity

C#C[C@]1(O)CCC2C3CCc4cc(O)ccc4C3CC[C@@]21C (stereo partly drawn) [Compound 4, 1, 3, 5(10)-estratriene-17α-ethynyl-3β,17β-diol]
PR activity [4]: some weak PR activity
